We go through two compounds from patent US20230257374A1, “NOVEL KRAS G12C PROTEIN INHIBITOR, PREPARATION METHOD THEREFOR, AND USE THEREOF” (INNOVENT BIOLOGICS (SUZHOU) CO., LTD., priority 2019, published 2023).

The test system of data set [1] is NCI-H358 tumor (K-RAS G12C mutation). Type of data set: in vivo, BALB/c nude mice. As to conditions: for Day 0 Tumor volume (mm^3) Vaverage ± SEM: Day 0 (at grouping, before administration), 15 mg/kg PO QD group; for Day 21 Tumor volume (mm^3) Vaverage ± SEM / Tumor inhibition rate TGI (%) / Tumor regression: Day 21, 15 mg/kg PO QD; for Tumor regression: animals with regression / group of 8; for Day 0 Body weight (g) Waverage ± SEM: mouse, in vivo, po, 15 mg/kg. The method, then: The cells were digested with trypsin-EDTA twice a week for passaging as per conventional practice. When the cell saturation reached 80%-90% and a required amount was achieved, the cells were collected and counted for later use. […] 5% DMSO/5% Solutol/90% water was used as a blank control. 3) Tumor inoculation and drug administration: BALB/c nude mice, female, 6-8 weeks old, weighing 18-20 g. The experiment started after 3-7 days of adaptive feeding. 0.1 mL of NCI-H358 cells (5×10^6 cells) were inoculated subcutaneously on the right back of each mouse. The mice were grouped for administration when the average tumor volume reached approximately 150 mm^3. The animals were weighed before administration and the tumor volume was measured. Grouping was randomly performed according to the tumor volume.
Animals were monitored daily for health and death, and routine examinations include observation of the effect of tumor growth and drug treatment on the daily performance of the animals, such as behavioral activities, food and water intake, weight changes (measured once every other day), appearance, or other abnormal conditions. Animal mortality and side effects within each group were recorded based on the number of animals in the group.
Tumor diameters were measured 2-3 times weekly using a vernier caliper.
The tumor volume was calculated as follows: […]
where a and b represent the long and short diameters of the tumor, respectively.
The anti-tumor therapeutic effect of the compound was evaluated by tumor growth inhibition rate TGI (%) or relative tumor proliferation rate T/C (%).
TGI (%) was calculated as follows: […]
T/C (%) was calculated as follows: […]
where TRTV represents the relative tumor volume of the treatment group; CRTV represents the relative tumor volume of the solvent control group.
Based on the results of tumor measurement, the relative tumor volume (RTV) was calculated as follows: […]
where V0 represents the average tumor volume measured at the time of grouping and administration (i.e., d0), Vt represents the average tumor volume in a certain measurement, and TRTV and CRTV take the data on the same day.
After the completion of the experiment, tumors were weighed, and the percentage of Tweight/Cweight was calculated, where Tweight and Cweight represent the tumor weights of the treatment group and the solvent control group, respectively.
Data calculation and analysis: T test was employed for comparison between two groups. One-way ANOVA was employed for comparison between three or more groups. If there is a significant difference in F-values, multiple comparisons should be made after ANOVA analysis. All data analyses were performed with SPSS 17.0. p<0.05 was defined as a significant difference.

A short description of another data set: in vitro. As to conditions: human, Caco-2, pH 7.4. As to the method:
Drug penetration test: the Transwell culture plate was retrieved from the incubator. […] All samples were prepared in double parallel. The integrity of the cell monolayer membrane after 2 hours of incubation was assessed using leakage of fluorescein; fluorescein stock solution was diluted with HBSS (25 mM HEPES, pH 7.4) to a final concentration of 100 μM. 100 μL of fluorescein solution was added to each well of the upper Transwell plate and 300 μL of HBSS (25 mM HEPES, pH 7.4) was added to each well of the lower receiving plate; after incubation at 37° C. for 30 min, 80 μL of the solution was pipetted from the upper and lower layers of each well to a new 96-well plate.
The apparent permeability coefficients (Papp, unit: cm/s) of the compounds in Caco-2 cells were calculated from the specific concentrations at the acceptor and donor ends, and the specific calculation formula is as follows: […]
where VA represents the volume of the acceptor end solution (0.3 mL for Ap→Bl, 0.1 mL for Bl→Ap); Area represents the area of the Transwell-96 well plate (0.143 cm^2); time represents the incubation time (unit: s); [drug]acceptor represents the drug concentration (ratio of peak area to internal standard area) at the acceptor end; [drug]initial, donor represents the drug concentration at the donor end (ratio of peak area to internal standard area).
The efflux ratio was calculated as follows: […]
where Papp (B-A) represents the apparent permeability coefficient from base end to top end; Papp (A-B) represents the apparent permeability coefficient from top end to base end.

Each structure is given as a SMILES string.

The term Papp A→B denotes how fast a substance crosses the layer from the apical side. In general, Papp B→A refers to the apparent permeability from the basolateral to the apical side of a cell layer. In general, efflux ratio refers to a quotient of directional permeabilities that is used to spot active efflux. For the compound `[2H]C([2H])([2H])c1cccc2cccc(N3CCc4c(nc(OC[C@@H]5CCCN5C)nc4N4CCN(C(=O)C=C)[C@@H](CC#N)C4)C3)c12` [Compound 1, 2-((S)-1-acryloyl-4-(7-(8-(methyl-d3)naphthalen-1-yl)-2-(((S)-1-methylpyrrolidin-2-yl)methoxy)-5,6,7,8-tetrahydropyrido[3,4-d]pyrimidin-4-yl)piperazin-2-yl)acetonitrile], in data set [1], the “Day 0 Tumor volume (mm^3) Vaverage ± SEM” value stood at 150 ± 10 mm^3, the “Day 21 Tumor volume (mm^3) Vaverage ± SEM” value was found to be 153 ± 14 mm^3, the “Tumor inhibition rate TGI (%)” value stood at 99.5% and the Tumor regression is recorded as 3/8. Moreover, the “Day 0 Body weight (g) Waverage ± SEM” value in data set [1] was 22.5 ± 0.5 g. Further, in “in vitro”, the Papp A→B at 2 h, 10 μM was determined as 0.63 ×10⁻⁶ cm/s; the Papp B→A at 2 h, 10 μM amounted to 5.5 ×10⁻⁶ cm/s; the efflux ratio at 2 h, 10 μM was found to be 8.7.

Consider `[2H]C([2H])([2H])N1CCC[C@H]1COc1nc2c(c(N3CCN(C(=O)C=C)[C@@H](CC#N)C3)n1)CCN(c1cccc3cccc(C)c13)C2` [Compound 42, 2-((S)-1-acryloyl-4-(7-(8-methylnaphthalen-1-yl)-2-(((S)-1-(methyl-d3)pyrrolidin-2-yl)methoxy)-5,6,7,8-tetrahydropyrido[3,4-d]pyrimidin-4-yl)piperazin-2-yl)acetonitrile], for which, in data set [1], the “Day 0 Tumor volume (mm^3) Vaverage ± SEM” value came out at 150 ± 9 mm^3, the “Day 21 Tumor volume (mm^3) Vaverage ± SEM” value is listed as 151 ± 18 mm^3, the “Tumor inhibition rate TGI (%)” value amounted to 99.8% and the Tumor regression is given as 4/8. For the same compound, the “Day 0 Body weight (g) Waverage ± SEM” value in data set [1] was found to be 22.8 ± 0.6 g.
